# ChEMBL document CHEMBL3507680, “University of Dundee, Gates Library screen for HepG2 cell viability”
# Test: Human HepG2 cell viability assay in 384 well format
# Type: toxicity, cell-based
# Parameters: dose 125 nL, time 70.5 hour; cytotoxicity at 70.5 h: concentration not given beside the values
# Details: HepG2 cells, read-out: Inhibition
row,SMILES,cytotoxicity at 70.5 h [%]
1,Cc1nc(C)n(CC2CCCN2CC(=O)NCCC2=CCCCC2)n1 (configuration not stated),-9.96
2,CCc1noc(CN2CCC(NC(=O)c3ccc(C)s3)CC2)n1,-9.12
3,CCOc1cc(C(=O)N2CC=C(c3ccc(O)cc3)CC2)ccn1,-14.3
4,O=C(CC(F)(F)F)N1C[C@@H]2CC[C@H](C1)N(Cc1ccccc1)C2=O,-9.7
5,CNC(=O)[C@H]1C[C@@H]2CN(C(=O)c3cccnc3)C[C@@H]2N1S(C)(=O)=O,-11.1
6,N#Cc1cc(S(N)(=O)=O)ccc1N1CCc2c(Cl)cccc2C1,42.5
7,O=C(NCCSCc1ccc(Br)s1)C1CCCN(C(=O)c2cccs2)C1 (configuration not stated),-8.75
8,Cc1nccn1CCCC(=O)N1CCC(N(C)c2cccnn2)CC1,-7.52
9,Cc1noc(C)c1CN(C)C(=O)C1(N)CCCCC1,-2.97
10,CC(=O)c1cccc(CN2CCCC23CCN(c2ccccn2)CC3)c1,-4.38
11,O=C(NCc1ccccc1)N1CCC(Oc2ncccc2Br)CC1,-7.02
12,Cc1nc(C2CN(Cc3scnc3C)CCO2)cc(N(C)C)n1 (configuration not stated),5.46
13,Cc1ccc(Cn2nc(C)c3c(C(=O)O)c(Cl)c(C)nc32)cc1,-12.9
14,CCn1c(CN(C)CC(F)(F)F)nc2c(F)cccc21,-0.949
15,CCCN1CCC(N(C)CCC(=O)Nc2ccccc2SC)CC1,1.62
16,Cc1nc(C(C)C)sc1C(=O)NCCSc1nccn1C,-10.1
17,Cn1ccnc1CN1CC[C@@H]2[C@@H](CCC(=O)N2CCc2c[nH]cn2)C1,27.2
18,CN(C(=O)CCc1ccsc1)S(C)(=O)=O,6.34
19,CCn1c(C2CCN(C(=O)c3ccc4sc(C)nc4c3)CC2)n[nH]c1=O,-17.3
20,Cc1cc(C)cc(CN2C[C@@H]3OCCN(S(=O)(=O)N(C)C)[C@@H]3C2)c1,-5.73
21,O=C(c1n[nH]cc1Cl)N1CCOC(Cc2cccc(C(F)(F)F)c2)C1 (configuration not stated),-4.63
22,COc1ccc(CNCC2CN(C3CC3)CCO2)cc1F (configuration not stated),-8.08
23,CO[C@H]1CO[C@@]2(CCCN(C(=O)N3CCCC3)C2)C1,1.63

row,SMILES,cytotoxicity at 70.5 h [%]
1,CC(C)c1nnc(CN2CC(n3cccn3)C2)o1,-6.56
2,O=C(Cc1cccc(F)c1)N1CCc2ncnc(NC3CC3)c2CC1,1.87
3,Cc1cc(=O)[nH]c(NCCNC(=O)C(c2ccc(F)cc2)N(C)C)n1 (configuration not stated),11.9
4,NC(CNS(=O)(=O)Cc1cccc2cccnc12)c1ccccc1 (configuration not stated),28.4
5,CCN(CC)C1(Cc2cc(-c3cccc(O)c3)on2)COC1,-8.06
6,Cc1cn([C@@H]2CC3(CCNCC3)OC[C@@]2(C)O)c(=O)[nH]c1=O,0.487
7,Cc1cccc(CNC2CCN(CCc3ccncc3)CC2)c1C,-3.09
8,CSCCNC(=O)c1coc(COc2ccc(F)cc2)n1,7.74
9,Cc1ccc(-n2cc(C(=O)NCc3nnc4n3CCCCC4)nn2)cc1,-3.85
10,CCn1cnnc1C1CCN(C(=O)C(OC)c2ccccc2)CC1 (configuration not stated),-0.299
11,CC(C)N1CCC(c2cccc(C(=O)N(C)C)n2)CC1,24.4
12,CC(=O)N1CCC(c2noc(C3CCC(=O)N3)n2)CC1 (configuration not stated),16.7
13,CCCN(CC(F)(F)F)C(=O)c1cc(F)cc2[nH]cnc12,0.747
14,Cn1ccc2c(C(=O)N3CCCC3c3noc(C4CC4)n3)cccc21 (configuration not stated),-1.84
15,Cc1cc(-n2cncn2)ccc1C(=O)N(C)CC(F)(F)C(F)(F)F,-5.19
16,COc1ccc(C)c2c1N(C(=O)c1cnc3onc(C)c3c1)CCC2,2.65
17,Cc1nn(C(C)C)c2cnn(CC(=O)N3CCSCC3)c12,-1.45
18,CCc1nc(C)ncc1C(=O)N1CC(=O)N(C)c2ccccc21,-10.1
19,Cc1cc(C(=O)N2CCCC2)ccc1NCCOCC(F)(F)F,9.16
20,Cc1csc(CNC(=O)N(C)Cc2cnn(C)c2)n1,-15.5
21,O=C(NCc1ccc2c(c1)OCO2)[C@H]1C=CCN1c1ncccn1,-4.63
22,O=C(Cc1ccc(F)cc1)NCC(O)(c1cccs1)C1CC1 (configuration not stated),13.2
23,COc1ccc(N2CCN(C(=O)C3CN(C)C(=O)N3)CC2(C)C)cc1 (configuration not stated),-8.78

row,SMILES,cytotoxicity at 70.5 h [%]
1,O=C(Nc1cncc(Br)c1O)c1ccon1,-2.33
2,O=C(CO)N1CCCC2(CCN(c3ccsc3)C2=O)C1 (configuration not stated),-8.82
3,CC(C)N(CC(=O)Nc1cccc(C#N)c1)C1CC1,-4.01
4,NC(=O)c1ccc(C2CCCN2C(=O)CCc2nc3ccccc3s2)s1 (configuration not stated),-1.87
5,Fc1cccc(O[C@@H]2C[C@H]3CN(Cc4ccncc4)CCN3C2)c1,-15.6
6,Cc1noc(C)c1CCC(=O)N1CCN(CCn2cncn2)CC1,-1.34
7,NC(=O)Cn1nc(-c2ccccc2F)ccc1=O,-9.13
8,CCOCC1CN(C2CCCC2)Cc2cnn(CC3CCOCC3)c21 (configuration not stated),2.06
9,Fc1cccc(N2CCOC3(CCCN(c4cnccn4)C3)C2)c1 (configuration not stated),-7.3
10,CCN(CC)S(=O)(=O)c1ccc(C(F)(F)F)cc1C#N,-8.21
11,Cc1nc(Cn2cc(C#N)c(=O)c3ccccc32)no1,-5.75
12,C[C@]1(O)CCN(Cc2cccnc2)C[C@@H]1Oc1cccc(F)c1,-2.19
13,Cc1cnc(NCCCN2CCc3ccccc32)nc1,-3.85
14,CC(C)(C)CC(NC(=O)c1nc(=O)[nH][nH]1)c1ccc(F)cc1 (configuration not stated),-3.76
15,CNc1cc(CCNC(=O)c2cccnc2)nc(-c2ccncc2)n1,-7.53
16,O=C(c1ccccc1OCC1CC1)N1CCCC1Cn1cccn1 (configuration not stated),17.7
17,COc1cccn(CC(=O)N(C)CCOc2cc(C)cc(C)c2)c1=O,2.11
18,COc1cccc(Cc2nc3c([nH]2)CC(C)(C)CNC3=O)c1OC,-1.08
19,OC1(CN2CCOC(CNc3cccnn3)C2)CCCCC1 (configuration not stated),0.208
20,CC(C)(C)NC(=O)CNc1ncc(Br)cn1,0.722
21,CC(C)C(C)N(Cc1cnc2ccccc2n1)Cc1ccco1 (configuration not stated),-8.62
22,O=C(CCCC1CCCC1)NS(=O)(=O)CC1CC1,-2.25
23,Cc1cc(C(=O)N[C@H]2CC[C@@]3(CCC(=O)N3CC3CC3)CC2)no1,-15.5

row,SMILES,cytotoxicity at 70.5 h [%]
1,COCCNC(=O)[C@@]12CCO[C@@H]1CCN(Cc1c(C)noc1C)C2,-5.87
2,COCCc1noc(CNC(=O)C2CC(=O)N(C(C)(C)C)C2)n1 (configuration not stated),-7.37
3,COc1cc(C(C)=O)ccc1OCCNCc1ccco1,-3.22
4,O=C(c1ccoc1)N(Cc1ccncc1)C1CC1,-14
5,CNc1cc(N2CCCC2CNCc2cccc(C(N)=O)c2)ncn1 (configuration not stated),-2.53
6,Cc1cc(C[C@@H]2CCC[C@H]2NCc2cc(C)c(O)c(C)c2)on1,2.36
7,CCS(=O)(=O)N1C[C@H]2C[C@H](C(=O)N(C)C)[C@@H](C1)O2,-19.2
8,COCCCNC1CCCN(c2ccc(C)nn2)C1 (configuration not stated),-9.97
9,COc1ncccc1NC(=O)N(C1CC1)C(C)C(C)C (configuration not stated),-13.6
10,O=C([C@@H]1Cc2[nH]cnc2CN1CC1CC1)N1CCCC1,9.33
11,O=C1CC[C@H]2[C@H](CCN2C(=O)c2ccc[nH]2)N1CCN1CCOCC1,19.1
12,O=C(NCCc1ccc(Cl)s1)NCc1nnc2n1CCCC2,-12.9
13,C[C@H]1CN(C(=O)c2cscn2)C[C@@]12CCN(c1ccsc1)C2=O,-14.4
14,Cc1cc(-n2cccn2)ccc1CN1CCC(O)(CN2CCCCC2)C1 (configuration not stated),1.06
15,CC(C)NC(=O)C1CN(C(=O)c2ccc(F)cc2)CC12CCOCC2 (configuration not stated),23.6
16,O=C(Cc1cccc(F)c1)N1CCn2cc(Cn3cccn3)nc2C1,-10.7
17,O=C(c1ccc(Cl)cc1)N1CCC(N2CCCOC2=O)CC1,-6.91
18,CCOC(=O)N1CCN(C(=O)c2ccc3ccn(C)c3c2)CC1,-8.79
19,CCOc1ccnc(N2CCN(C(=O)c3ccoc3C)CC2)n1,-3.63
20,O=C([C@@H]1CCO[C@@H]2CCN(CC3CC3)C[C@H]21)N1CCCC1,-2.49
21,O=C(CCC1CCN(C2CCSCC2)CC1)NCC1CCCO1 (configuration not stated),-12
22,CC(C)CN1CCCn2nc(CNC(=O)OCc3ccccc3)cc2C1,-5.5
23,Cc1nccn1C1CCCN(C(=O)c2cc3ccccc3[nH]2)C1 (configuration not stated),42.8

row,SMILES,cytotoxicity at 70.5 h [%]
1,CCN(C(=O)CN(CC(N)=O)C(C)C)C1=CCCC1,22.8
2,Cn1cc(CN2C[C@@H](NC(=O)c3cscn3)[C@H]3OCCC[C@H]32)cn1,-8.57
3,CN(Cc1noc(C(C)(C)C)n1)Cc1ccccc1N1CCCC1,-8.02
4,CNc1cc(C)nc(N2CCN(Cc3ccccc3)CC(O)C2)n1 (configuration not stated),-0.369
5,Cc1ncoc1C(=O)N1CCOC(CC2CCCCC2)C1 (configuration not stated),-5.24
6,COc1ccc(CN2CC[C@@]3(O)CCCC[C@H]3C2)cc1C(=O)O,8.88
7,Cn1ccnc1N1CCN(C(=O)Cc2ccc(Cl)cc2)CC1,-1.94
8,COCC(=O)N[C@H]1C[C@H]2C(=O)NC[C@@H](CCC(=O)NC3CC3)N2C1,-2.9
9,CC(C)O[C@H]1CN(C(=O)CCN2CCCCO2)C[C@@H]1O,11.2
10,CC(C(=O)NC(N)=O)N(C)CCCc1cc(-c2ccccc2)no1 (configuration not stated),-3.63
11,CN(C)CCN1CCOCC2(CCCN(C(=O)c3ccccc3)C2)C1 (configuration not stated),-2.82
12,Cc1noc(C)c1C(=O)N1CCCC(c2cc(C(F)(F)F)[nH]n2)C1 (configuration not stated),11
13,c1cnnc(N2CCCC2CNc2nc3ccccc3o2)c1 (configuration not stated),-2.85
14,Cc1nc(C)n(CC2CN(Cc3ccccc3OC(C)C)CCO2)n1 (configuration not stated),-9.52
15,N#Cc1ccc(CN2CCCC3(Cc4ccccc4CNC3=O)C2)cc1 (configuration not stated),31.4
16,COCCOCCNC(=O)C(C)Oc1ccccc1C(F)(F)F (configuration not stated),-5.94
17,CC(C)(C)c1cc(CN2C[C@@H]3CC[C@H](C2)N(Cc2ccccn2)C3)n[nH]1,-9.78
18,Cc1c2nnn(CC(=O)N(C)C)c(=O)c2nn1C,-8.25
19,O=C(NC1CC2(CCN(CCO)CC2)c2ccccc21)c1ccsc1 (configuration not stated),8.71
20,Cc1oc(-c2ccsc2)nc1CC(=O)NCC(=O)Nc1cn[nH]c1,-13
